Where two headings read alike, the source gives them in different places.
Experiments:
[1] = test system: HuTu-80 (human duodenal cancer) cells; experiment: Cell viability analysis by MTT assay, HuTu-80; type: cell-based; conditions: for IC50: Homo sapiens, HuTu80, MTT, 48 h incubation, read-out: Antiproliferative activity, IC50, HuTu80; for Selectivity index, HuTu80: ratio of IC50 on normal hFF3 cells to IC50 of HuTu80
Description: (§1) The target compounds were tested on different lines of tumor cells, HuTu-80 (human duodenal cancer), B16 (mouse melanoma), A549 (human lung adenocarcinoma), KB-3-1 (human squamous cell carcinoma), HeLa (human squamous cell carcinoma of the cervix), as well as on human noncancer cells hFF3.
(§2) Human KB-3-1 epidermoid carcinoma cell line, human HeLa cervical epithelioid carcinoma cell line, human HuTu-80 duodenal cancer cells, human A549 lung carcinoma epithelial cells, mouse B16 melanoma cell line and human hFF3 fibroblast cells were obtained from the Russian Cell Culture Collection (St. Petersburg, Russia) and were cultured in DMEM (hFF3 cells in IMDM) supplemented with 10% (v/v) heat-inactivated fetal bovine serum, penicillin (100 U mL^−1), streptomycin (100 µg mL^−1) and amphotericin ([…]). Cells were maintained in a humidified atmosphere of 5% CO2 at 37 °C.
(§3) All compounds were dissolved in dimethylsulfoxide (DMSO) and stock solutions (10 mmol L^−1) were stored at −20 °C.
(§4) Cells growing in the logarithmic phase were seeded in triplicate in 96-well plates at a density of 5 × 10^3 cells per well for HeLa and HuTu-80 cells, 7 × 10^3 cells per well for KB-3-1 and hFF3, 10 × 10^3 for A549 and 20 × 10^3 for B16. The plates were incubated at 37 °C in a humidified 5% CO2 atmosphere. Cells were allowed to adhere to the surface for 24 h and then tested compounds were added at different concentrations and incubation was continued for 48 h. Then [3-(4,5-dimethylthiazol-2-yl)-2,5-diphenyltetrazolium bromide] (MTT) solution (10 µL, 5 mg mL^−1) was added to each well and the incubation was continued for an additional 3 h. The dark blue formazan crystals formed within the healthy cells were solubilized with DMSO and the absorbance was measured using a Multiscan RC plate reader at 570 nm. The IC50 was determined as the compound concentration required to decrease the A570 to 50% compared to the control (no tested compounds, DMSO) and was determined by interpolation from dose-response curves.

[2] = test system: B16 (mouse melanoma) cells; experiment: Cell viability analysis by MTT assay, B16; type: cell-based; conditions: for IC50: MTT, 48 h incubation, read-out: Antiproliferative activity, IC50, B16; for Selectivity index, B16: ratio of IC50 on normal hFF3 cells to IC50 of B16
Description: as §1, §2, §3, §4

[3] = test system: A549 (human lung adenocarcinoma) cells; experiment: Cell viability analysis by MTT assay, A549; type: cell-based; conditions: for IC50: Homo sapiens, A549, MTT, 48 h incubation, read-out: Antiproliferative activity, IC50, A549; for Selectivity index, A549: ratio of IC50 on normal hFF3 cells to IC50 of A549
Description: as §1, §2, §3, §4

[4] = test system: KB-3-1 (human epidermoid carcinoma) cells; experiment: Cell viability analysis by MTT assay, KB-3-1; type: cell-based; conditions: for IC50: Homo sapiens, KB 3-1, 48 h, MTT, 48 h incubation, read-out: Antiproliferative activity, IC50, KB-3-1; for Selectivity index, KB-3-1: ratio of IC50 on normal hFF3 cells to IC50 of KB-3-1
Description: as §1, §2, §3, §4

[5] = test system: HeLa (human cervical epithelioid carcinoma) cells; experiment: Cell viability analysis by MTT assay, HeLa; type: cell-based; conditions: for IC50: Homo sapiens, HeLa, MTT, 48 h incubation, read-out: Antiproliferative activity, IC50, HeLa; for Selectivity index, HeLa: ratio of IC50 on normal hFF3 cells to IC50 of HeLa
Description: as §1, §2, §3, §4

[6] = test system: human noncancer cells hFF3 (fibroblasts); experiment: Cell viability analysis by MTT assay, normal hFF3 cells; type: cell-based; conditions: for IC50: Homo sapiens, HFF-3, 48 h, normal cells, MTT, 48 h incubation, read-out: Antiproliferative activity, IC50, hHFF3; for Toxic effect on normal hFF3 cells: concentrations up to 100 μM
Description: as §1, §2, §3, §4

tumor cells = experiment: Cell viability MTT assay, statements on the tumor cell panel as a whole; type: cell-based; conditions: for Toxic effect on tumor cells: concentrations up to 100 μM
Description: as §1, §2, §4

KB-3-1 cells [7] = experiment: Apoptosis detection by Annexin V/PI staining, flow cytometry; type: cell-based, human; conditions: 48 h
Description: To examine whether the tested 5′-norcarbocyclic derivatives induce cell death via apoptosis Annexin V and propidium iodide analysis were used (Figure 1). […] Annexin V binds phosphatidylserine residues, which are asymmetrically distributed toward the inner plasma membrane, and migrate to the outer plasma membrane during apoptosis.
Exponentially growing KB-3-1 cells in 6–well plates (5 × 10^5 cells per well) were treated with 3i (5, 10 and 20 µM) or with 0.1% (v/v) DMSO as a control for 48 h. The cells were stained with Annexin V-FITC and propidium iodide by the Annexin-FITC apoptosis staining/detection kit (Abcam) according to the instruction of the manufacturer. Briefly, cells were collected by scrapping, washed twice with cold PBS, and centrifuged (400 g, 5 min). Cells were resuspended in binding buffer (500 µL) and Annexin V–FITC (5 µL) and PI (5 µL) were added. Cells were incubated for 5 min at 20 °C in the dark. Finally, binding buffer (300 µL) was added to each tube, and the amount of apoptotic cells in samples were analyzed by flow cytometry. For each sample, 10,000 ungated events were acquired. Annexin V + PI − cells represent the early apoptotic populations. Annexin V + PI + cells represent either late apoptotic or secondary necrotic populations.

KB-3-1 cells [8] = experiment: Mitochondria depolarization analysis, JC-1 staining, flow cytometry; type: cell-based, human; conditions: 20 µM, KB-3-1, control 0.1% DMSO
Text: We next investigated whether 3i utilizes the mitochondrial ‘intrinsic’ pathway in the apoptotic death of KB-3-1 cells, since the pivotal role of mitochondria in triggering apoptosis is well established. We evaluated the mitochondrial transmembrane potential (∆Ψm) in KB-3-1 cells exposed to 3i using cytofluorometric analysis. Cells were stained with the specific mitochondrial cationic dye JC-1 (5,5′,6,6′-tetrachloro-1,1′,3,3′-tetraethyl benzimidazole carbocyanine iodide) that accumulates in the transmembrane space of polarized mitochondria and forms the so–called «J–aggregates», emitting red fluorescence. A decrease in ∆Ψm results in disappearance of J–aggregates and formation of JC-1 monomers, which emit in a green fluorescence.
Mitochondria involvement in apoptosis was measured by mitochondrial depolarization occurring early during onset of apoptosis. KB-3-1 cells were incubated with 3i (5, 10 and 20 µM) or 0.1% (v/v) DMSO as a control for 48 h. Then, cells were collected and incubated in complete media in the dark with mitochondrial potential sensor JC-1 (5 µg mL^−1) at 37 °C for 30 min, washed with cold PBS and resuspended in PBS (400 µL). Fluorescences of J–aggregate and J–monomer were recorded in the fluorescence channels 2 (FL2) and 1 (FL1), respectively, with flow cytometer «FC500». […]

IC50 [1] [µM] | IC50 ([2]; Mus musculus, 48 h) [µM] | IC50 [3] [µM] | IC50 [4] [µM] | IC50 [5] [µM] | IC50 [2] [µM] | Structure (SMILES) | IC50 [6] [µM] | Toxic effect on normal hFF3 cells [6] | Toxic effect on tumor cells (tumor cells) | Selectivity index, HuTu80 [1] | Selectivity index, B16 [2] | Selectivity index, A549 [3] | Selectivity index, KB-3-1 [4] | Selectivity index, HeLa [5] | Apoptotic cells (KB-3-1 cells [7]; 5 µM) [%] | Apoptotic cells (KB-3-1 cells [7]; 20 µM) [%] | Red fluorescence value (JC-1 J-aggregates) as compared to the control (KB-3-1 cells [8]) | Selectivity index value (tumor cells; depending on the nature and origin of tumor cells)
> 100 | > 100 | > 100 | > 100 | > 100 |  | CCCCCc1cc2cn(C3C=CC(O)C3)c(=O)nc2o1 (centres unmarked) [Compound 3b, 1-(4′-Hydroxy-2′-cyclopenten-1′-yl)-6-pentyl-3H-furano[2,3-d]-pyrimidine-2-one] | > 100 | no toxic effect | no toxic effect |  |  |  |  |  |  |  |  | 
5.1 ± 0.6 | 21 | 47.5 ± 5.8 | 8.2 ± 1.3 | 6.5 ± 0.9 | 21.3 ± 2.9 | CCCCCc1ccc(-c2cc3cn(C4C=CC(O)C4)c(=O)nc3o2)cc1 (centres unmarked) [Compound 3i, 1-(4′-Hydroxy-2′-cyclopenten-1′-yl)-6-(4-pentylphenyl)-3H-furano[2,3-d]-pyrimidine-2-one] | > 100 | not toxic |  | >19.6 | >4.7 | >2.1 | >12.2 | >15.3 | 26 | 55.3 | decrease | 15–20
> 100 | > 100 | > 100 | > 100 | > 100 |  | CCCc1cc2cn(C3C=CC(O)C3)c(=O)nc2[nH]1 (centres unmarked) [Compound 4a, 1-(4′-Hydroxy-2′-cyclopenten-1′-yl)-6-propyl-3H-pyrrolo[2,3-d]-pyrimidine-2-one] | > 100 | no toxic effect | no toxic effect |  |  |  |  |  |  |  |  | 
8.5 ± 1.1 | 13.4 ± 3.2 | 15.6 ± 4.1 | 9.8 ± 0.7 | 11.1 ± 0.9 |  | CCCCCc1ccc(-c2cc3cn(C4C=CC(O)C4)c(=O)nc3[nH]2)cc1 (centres unmarked) [Compound 4i, 1-(4′-Hydroxy-2′-cyclopenten-1′-yl)-6-(4-pentylphenyl)-3H-pyrrolo[2,3-d]-pyrimidine-2-one] | 21.9 ± 4.8 |  |  | 2.6 | 1.6 | 1.4 | 2.2 | 1.9 |  |  |  | 
> 100 | > 100 | > 100 | 50.3 ± 9.8 | 70.2 ± 8.9 |  | CCCCCCCCCCc1cc2cn(C3CC(O)C(O)C3O)c(=O)nc2o1 (centres unmarked) [Compound 5, 1-(2′,3′,4′-Trihydroxycyclopent-1′-yl)-6-decyl-3H-furano[2,3-d]-pyrimidine-2-one] | > 100 | not toxic |  |  |  |  | >2 | >1.4 |  |  |  | 

Source: publication PMC6222425, “Novel 5′-Norcarbocyclic Derivatives of Bicyclic Pyrrolo- and Furano[2,3-d]Pyrimidine Nucleosides” (Molecules : A Journal of Synthetic Chemistry and Natural …, 2018)
